What was measured:
ABUTH (Velvetleaf) = assay: Postemergence herbicidal evaluation; type: in vivo, Abutilon theophrasti; conditions: postemergence
Summary of the method: (§1)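 Herbicidal effect was judged by eye on a 0–9 scale covering stand, vigor, deformity, size and chlorosis, compared with controls, four to five weeks after seedlings about two weeks old were sprayed (40 psi, ~0.0156–0.500 kg/ha).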

AMBEL (Ragweed, Common) = assay: Postemergence herbicidal evaluation; type: in vivo, Ambrosia artemisifolia; conditions: postemergence
Summary of the method: as §1

[1] = test system: IPOHE (Morningglory, Ivyleaf); assay: Postemergence herbicidal evaluation; type: in vivo, Ipomoea hederacea; conditions: postemergence
Summary of the method: as §1

ECHCG (Barnyardgrass) [2] = assay: Postemergence herbicidal evaluation; type: in vivo, Echinochloa crus-galli; conditions: postemergence
Summary of the method: as §1

SETVI (Foxtail, Green) = assay: Postemergence herbicidal evaluation; type: in vivo, Setaria viridis; conditions: postemergence
Summary of the method: as §1

[3] = test system: GLXMAW (Soybean, Williams); assay: Postemergence herbicidal evaluation; type: in vivo, Glycine max, (L.) Merr. cv Williams; conditions: postemergence
Summary of the method: as §1

[4] = test system: TRZAWR (Wheat, Winter, cv Riband); assay: Postemergence herbicidal evaluation; type: in vivo, Triticum aestivum; conditions: postemergence
Summary of the method: as §1

CASOB (Sicklepod) = assay: Preemergence herbicidal evaluation; type: in vivo, Cassia obtusifolia; conditions: rated 4-5 weeks after treatment
Summary of the method: (§2)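 Scores (0–9) reflect visual comparison with control plants for stand, vigor, malformation, size and chlorosis. Compound was applied to the soil after sowing, before emergence, as an aqueous acetone spray (about 0.0156–0.500 kg/ha), and cups were kept in a greenhouse for 4–5 weeks.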

[5] = test system: CHEAL (Lambsquarters, Common); assay: Preemergence herbicidal evaluation; type: in vivo, Chenopodium album; conditions: rated 4-5 weeks after treatment
Summary of the method: as §2

GALAP (Galium) = assay: Preemergence herbicidal evaluation; type: in vivo, Galium aparine; conditions: rated 4-5 weeks after treatment
Summary of the method: as §2

[6] = test system: IPOHE (Morningglory, Ivyleaf); assay: Preemergence herbicidal evaluation; type: in vivo, Ipomoea hederacea; conditions: rated 4-5 weeks after treatment
Summary of the method: as §2

ECHCG (Barnyardgrass) [7] = assay: Preemergence herbicidal evaluation; type: in vivo, Echinochloa crus-galli; conditions: rated 4-5 weeks after treatment
Summary of the method: as §2

ZEAMX (Corn, Field) = assay: Preemergence herbicidal evaluation; type: in vivo, Zea mays; conditions: rated 4-5 weeks after treatment
Summary of the method: as §2

[8] = test system: ECHORC (Watergrass (Calif.)); assay: Postemergence weed control under flooded paddy conditions; type: in vivo, Echinochloa oryzoides; conditions: postemergence weeds, rated 3 to 4 weeks after treatment
Summary of the method: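 Weeds 3 to 5 cm tall and rice seedlings at the 1.5 to 2.5 leaf stage were flooded, with water held 1.5 to 3 cm above the soil. Compounds in 50/50 v/v aqueous/acetone went into the flood water at about 0.0313 to 0.500 kg/ha. Visual 0-9 ratings versus control were made 3 to 4 weeks later.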

Structure (SMILES): CCOC(=O)C(c1ccc(Cl)cc1)N1C(=O)CSC1=Nc1cc(-n2c(=O)cc(C(F)(F)F)n(C)c2=O)c(F)cc1Cl (racemic) [Compound 79, Ethyl α-(p-chlorophenyl)-2-{{2-chloro-5-[3,6-dihydro-3-methyl-2,6-dioxo-4-(trifluoromethyl)-1(2H)-pyrimidinyl]-4-fluorophenyl}imino}-4-oxo-3-thiazolidineacetate, DL-]
- ABUTH herbicidal rating (ABUTH (Velvetleaf); rate 0.0158 kg/ha): 9.0
- ABUTH herbicidal rating (ABUTH (Velvetleaf); rate 0.0315 kg/ha): 9.0
- ABUTH herbicidal rating (ABUTH (Velvetleaf); rate 0.0630 kg/ha): 9.0
- AMBEL herbicidal rating (AMBEL (Ragweed, Common); rate 0.0158 kg/ha): 6.0
- AMBEL herbicidal rating (AMBEL (Ragweed, Common); rate 0.0315 kg/ha): 7.0
- AMBEL herbicidal rating (AMBEL (Ragweed, Common); rate 0.0630 kg/ha): 9.0
- IPOHE herbicidal rating ([1]; rate 0.0158 kg/ha): 9.0
- IPOHE herbicidal rating ([1]; rate 0.0315 kg/ha): 9.0
- IPOHE herbicidal rating ([1]; rate 0.0630 kg/ha): 9.0
- ECHCG herbicidal rating (ECHCG (Barnyardgrass) [2]; rate 0.0158 kg/ha): 1.0
- ECHCG herbicidal rating (ECHCG (Barnyardgrass) [2]; rate 0.0315 kg/ha): 1.0
- ECHCG herbicidal rating (ECHCG (Barnyardgrass) [2]; rate 0.0630 kg/ha): 1.0
- SETVI herbicidal rating (SETVI (Foxtail, Green); rate 0.0158 kg/ha): 4.0
- SETVI herbicidal rating (SETVI (Foxtail, Green); rate 0.0315 kg/ha): 1.0
- SETVI herbicidal rating (SETVI (Foxtail, Green); rate 0.0630 kg/ha): 1.0
- GLXMAW herbicidal rating ([3]; rate 0.0158 kg/ha): 4.5
- GLXMAW herbicidal rating ([3]; rate 0.0315 kg/ha): 5.0
- GLXMAW herbicidal rating ([3]; rate 0.0630 kg/ha): 5.0
- TRZAWR herbicidal rating ([4]; rate 0.0158 kg/ha): 3.0
- TRZAWR herbicidal rating ([4]; rate 0.0315 kg/ha): 2.5
- TRZAWR herbicidal rating ([4]; rate 0.0630 kg/ha): 5.0
- Preemergence herbicidal rating CASOB (CASOB (Sicklepod); rate 0.0313 kg/ha): 1.0
- Preemergence herbicidal rating CASOB (CASOB (Sicklepod); rate 0.0625 kg/ha): 0.0
- Preemergence herbicidal rating CASOB (CASOB (Sicklepod); rate 0.1250 kg/ha): 0.0
- Preemergence herbicidal rating CASOB (CASOB (Sicklepod); rate 0.2500 kg/ha): 1.0
- Preemergence herbicidal rating CHEAL ([5]; rate 0.0313 kg/ha): 9.0
- Preemergence herbicidal rating CHEAL ([5]; rate 0.0625 kg/ha): 9.0
- Preemergence herbicidal rating CHEAL ([5]; rate 0.1250 kg/ha): 9.0
- Preemergence herbicidal rating CHEAL ([5]; rate 0.2500 kg/ha): 9.0
- Preemergence herbicidal rating GALAP (GALAP (Galium); rate 0.0313 kg/ha): 0.0
- Preemergence herbicidal rating GALAP (GALAP (Galium); rate 0.0625 kg/ha): 0.0
- Preemergence herbicidal rating GALAP (GALAP (Galium); rate 0.1250 kg/ha): 0.0
- Preemergence herbicidal rating GALAP (GALAP (Galium); rate 0.2500 kg/ha): 0.0
- Preemergence herbicidal rating IPOHE ([6]; rate 0.0313 kg/ha): 0.0
- Preemergence herbicidal rating IPOHE ([6]; rate 0.0625 kg/ha): 0.0
- Preemergence herbicidal rating IPOHE ([6]; rate 0.1250 kg/ha): 0.0
- Preemergence herbicidal rating IPOHE ([6]; rate 0.2500 kg/ha): 1.0
- Preemergence herbicidal rating ECHCG (ECHCG (Barnyardgrass) [7]; rate 0.0313 kg/ha): 0.0
- Preemergence herbicidal rating ECHCG (ECHCG (Barnyardgrass) [7]; rate 0.0625 kg/ha): 0.0
- Preemergence herbicidal rating ECHCG (ECHCG (Barnyardgrass) [7]; rate 0.1250 kg/ha): 0.0
- Preemergence herbicidal rating ECHCG (ECHCG (Barnyardgrass) [7]; rate 0.2500 kg/ha): 0.0
- Preemergence herbicidal rating ZEAMX (ZEAMX (Corn, Field); rate 0.0313 kg/ha): 1.0
- Preemergence herbicidal rating ZEAMX (ZEAMX (Corn, Field); rate 0.0625 kg/ha): 1.0
- Preemergence herbicidal rating ZEAMX (ZEAMX (Corn, Field); rate 0.1250 kg/ha): 1.0
- Preemergence herbicidal rating ZEAMX (ZEAMX (Corn, Field); rate 0.2500 kg/ha): 2.0
- Herbicidal rating ECHORC ([8]; Rate 0.0313 kg/ha): 5.0
- Herbicidal rating ECHORC ([8]; Rate 0.0625 kg/ha): 6.0
- Herbicidal rating ECHORC ([8]; Rate 0.1250 kg/ha): 7.0
- Herbicidal rating ECHORC ([8]; Rate 0.2500 kg/ha): 8.0
